Source: patent publication US7166612B2, “Methods for reducing platelet activation platelet aggregaton or thrombosis” (Beth Israel Deaconess Medical Center, priority 2001, dated 2007)

Legend:
platelets [1] = test: agonist-induced platelet granule secretion (P-selectin expression, flow cytometry); assay type: cell-based, human
Experimental: In order to assay platelet activation by cell surface marker expression, fresh PRP is isolated from donors who have not ingested aspirin for two weeks prior to donation. PRP (40 μl) is incubated with known or suspected inhibitor in DMSO or DMSO alone for 15 min. The sample is then incubated with the indicated agonist (e.g., SFLLR) for 10 min. Following incubation of the sample with the indicated agonist, 10 μl of reaction mixture is transferred to 5 μl of phycoerythrin (PE)-conjugated AC 1.2 anti-P-selectin antibody (for assessment of P-selectin surface expression) or fluorescein isothiocyanate (FITC)-conjugated PAC-1 antibody (for assessment of GPIIbIIIa activation). PBS (500 μl) is added to the sample after a 20 min incubation and the platelets are analyzed immediately by flow cytometry. Flow cytometry can be performed using, for example, a Becton-Dickinson FACSCalibur flow cytometer or its equivalent. Fluorescent channels are set at logarithmic gain. Ten thousand particles are acquired for each sample. A 530/30 band pass filter is used for FL-1 fluorescence. A 585/42 band pass filter is used for FL-2 fluorescence. FITC is measured in the FL-1 channel and PE is measured in the FL-2 channel. Data are analyzed using, for example, CellQuest software on a Macintosh PowerPC, or their equivalents. […]
Each of the compounds was tested for inhibition of platelet activation in response to the agonists SFLLR (a thrombin mimic), U46619 (a thromboxane A2 mimic), ADP and the phorbol ester PMA.
Compounds were also tested by flow cytometry for the inhibition of SFLLR-induced GPIIbIIIa activation and P-selectin expression. In these experiments, freshly obtained PRP was prepared from healthy volunteers who had not ingested aspirin for two weeks prior to donation. Forty μl of PRP was incubated with inhibitor in DMSO or DMSO alone for 15 min. The sample was then incubated with the indicated agonist for 10 min. Following incubation of the sample with the indicated agonist, 10 μl of reaction mixture was transferred to 5 μl of PE-conjugated AC1.2 anti-P-selectin antibody (for assessment of P-selectin surface expression) or FITC-conjugated PAC-1 antibody (for assessment of GPIIbIIIa activation). PBS (500 μl) was added to the sample after a 20 min incubation and the platelets were analyzed immediately by flow cytometry. Flow cytometry was performed using a Becton-Dickinson FACSCalibur flow cytometer. Fluorescent channels were set at logarithmic gain. Ten thousand particles were acquired for each sample. A 530/30 band pass filter was used for FL-1 fluorescence. A 585/42 band pass filter was used for FL-2 fluorescence. FITC was measured in the FL-1 channel and PE was measured in the FL-2 channel. Data were analyzed using CellQuest software on a MacIntosh PowerPC.
Compound was tested for its ability to inhibit SFLLR-, U46619-, ADP-, PMA-, and collagen I-induced platelet α-granule secretion. In these assays, platelets were incubated with increasing doses of compound for 30 minutes. The platelets were then exposed to a maximally stimulatory dose of the indicated agonist. P-selectin surface expression was analyzed by flow cytometry using phycoerythrin-anti-P-selectin to monitor for α-granule secretion.

[2] = tested on: PGE1-induced cAMP levels in platelets; test: augmentation of PGE1-induced cAMP levels in platelets; assay type: cell-based, human; conditions: in words
Experimental: (A) Compound was tested for its ability to inhibit SFLLR-, U46619-, ADP-, PMA-, and collagen I-induced platelet α-granule secretion. (B) The effect of the compound on PGE1-stimulated cAMP elevation was analyzed. Platelets were incubated with increasing doses of pyridazinone compound for 30 minutes prior to the 2 minute incubation with PGE1. Platelets were subsequently lysed and cAMP level was assayed using a commercially available ELISA kit (Liao et al., 1998, Eur J Pharmacol 349, 107–14). […] Error bars represent mean ±1 SD (n=4), *P<0.001.
One frequent target of anti-platelet agents is phosphodiesterase III (PDE III). […] The assay is performed as described by Liao et al., 1998, Eur J Pharmacol 349,107–114, incorporated herein by reference. Briefly, aliquots of PRP are exposed to increasing concentrations of the agent for 20 minutes. The PRP is then challenged with 1 μM PGE1 for 2 min The reaction is stopped by adding 10 mM EDTA, followed immediately by boiling for 2 min. The mixture is cooled to 4° C. and the precipitated protein is pelleted. cAMP content in the supernatant is quantitated using an enzyme immunoassay kit (Pharmacia-Amersham, NJ) according to the instructions of the manufacturer.
In order to assess whether the compounds useful according to the invention might act through inhibition phosphodiesterase III, each was tested for its effect on PGE1-induced cAMP increase. Determination of platelet cAMP levels was performed as described by Liao et al., 1998, supra. Aliquots of PRP were exposed to increasing concentrations of the indicated compounds for 20 min. PRP was then challenged with 1 μM PGE1 for 2 min. The reaction was stopped with the addition of 10 mM EDTA followed immediately by boiling for 2 min. The mixture was then cooled to 4° C. and the precipitated protein was pelleted. Cyclic AMP content in the supernatant was then quantified using an enzyme immunoassay kit (Pharmacia-Amersham, NJ) according to the instructions of the manufacturer.

platelets [3] = test: platelet aggregation (aggregometer); assay type: cell-based, human; conditions: in words
Experimental: Platelet aggregation profiling is a standard methodology, generally performed with an instrument adapted for that express purpose, for example, a Platelet Aggregation Profiler (BioData, Horsham, Pa.). The assays can generally be performed according to the instructions of the manufacturer. As exemplary conditions, 400 μl of PRP are incubated with inhibitor for 15 minutes at room temperature. The sample is then incubated for 3 minutes at 37° C. in the Platelet Aggregation Profiler. The instrument is calibrated with platelet poor plasma serving as a blank. A baseline tracing is established by monitoring the light transmittance of PRP being stirred at 1200 rpm. Aggregation is initiated by the addition of SFLLR (200 μM) and the percent of platelet aggregation is measured by the change in light transmittance for 6 minutes following addition of SFLLR.

[4] = tested on: platelet protein palmitoylation; test: incorporation of [3H]-palmitate into platelet proteins; assay type: cell-based; conditions: 100 μM compound; 20 μM or 200 μM SFLLRN; in words
Experimental: Platelets were labeled with [^3H]-palmitate for 2 hours in the absence (lanes 1, 2, and 3) or presence (lanes 4, 5, and 6) of 100 μM JF081204{5C} for 2 hours. Labeled platelets were then incubated with 0 μM ([…]), 20 μM (lanes 2 and 5), or 200 μM SFLLRN (lanes 3 and 6). Platelet samples were lysed, separated by SDS-PAGE, Western blotted, and visualized with a tritium imager screen (Panel a). The activation of platelets by SFLLRN led to an increase incorporation of [^3H]-palmitate into platelet proteins, whereas the presence of JF081204{5C} inhibited this activation-dependent [^3H]-palmitate incorporation (Panel b). Western blot membrane from panel (a) was stained with Ponceau S to visualize proteins in the platelet lysates.
The incorporation of [^3H]-palmitate into platelet intracellular proteins was examined to determine the effect of JF081204{5C} on platelet protein palmitoylation. […] Exposure of platelets to either 20 μM or 200 μM SFLLRN increased the intensity of the labeling. Incubation of platelets with 100 μM of JF081204 {5C} inhibited the increase in [^3H]-palmitate incorporation induced by either 20 μM or 200 μM SFLLRN.

[5] = tested on: laser-induced thrombi in cremaster arterioles; assay type: in vivo
From the text: A preferred animal model involves intravital microscopy of laser-induced thrombi. The method is described by Rosen et al., 2001, Am J Pathol 158, 1613–1622, which is incorporated herein by reference. Minor variations of that method were employed as described below.
Experimental mice are pre-anesthetized and surgically prepared. A tracheal tube is placed to facilitate breathing and the jugular vein is canulated to allow for maintenance of anesthetic and introduction of compound. The cremaster muscle is then exteriorized. The muscle is affixed over a glass slide, allowing illumination from below. A steady drip of a sodium-bicarbonate buffered salt solution is maintained throughout the experiment to keep the exposed muscle moist. Blood flow in the muscle is visualized using a 40× water immersion lens and epi-illuminated with an appropriately filtered light source. Alexa 488-labeled anti-mouse CD41 antibody is injected through the jugular canulus to label platelets in vivo.
Thrombosis is initiated by damaging the vessel wall (of a 30 μm vessel) with a laser pulse from a MicroPoint LASER attached to the microscope. A LASER pulse is delivered, causing damage in an area smaller than 1 μm. The recruitment of platelets to the thrombus is then monitored by the accumulation of (activated) Alexa 488-labeled platelets at the ablation site using fluorescence microscopy, and the process is recorded digitally. The method thus permits in vivo analysis of platelet activation as measured by platelet aggregation and thrombosis.
The degree of embolization in an untreated mouse can be quantified using software for image analysis, e.g., BioQuant True Color Windows (Biometrics, Nashville, Tenn.), as described in Rosen et al., 2001, supra. The software package permits the determination of the “integrated optical density” or IOD of the thrombus.
Using quantitative intravital fluorescence videomicroscopy with high temporal resolution (111 images/second), the effect of PDE3 inhibition on the platelet recruitment into thrombi was directly observed over time. Platelets were fluorescently labeled by infusing rat-anti-mouse CD41 and Alexa 488-anti-rat IgG through a cannulated jugular vein. The cremaster microvasculature was exposed and mapped and suitable arteriole segments were selected for laser-induced injury. A series of control injuries were generated prior to infusion of the inhibitory compound. The power and the number of laser pulses required to generate each thrombus was recorded. Platelet accumulation to the thrombi following laser ablation was recorded using digital videomicroscopy. The thrombus total fluorescence in each frame of the videos was analyzed using Slidebook software for digital videomicroscopy. The pyridazinone compound was then infused. Following a 15 minute incubation, a series of experimental injuries were generated 250 μm proximal, with relationship to blood flow, of the first injury and the resultant thrombi were recorded. The power and the number of pulses required to induce the control thrombus was used to induce the experimental thrombus. The control and experimental thrombi constituting a pair were compared for statistical analysis. The total fluorescence intensity of the thrombi before and after the infusion of pyridazinone compound was recorded.
Images from a representative experiment of the recruitment of fluorescently-labeled […] platelets into a growing thrombus over time is shown in FIG. 9A.

mouse platelets = conditions: in words
[6] = tested on: patients suffering intermittent claudication; conditions: cited from earlier work

Q: Which results are given for `Nc1cc2cccnc2c2ncccc12` [[1,10]Phenanthroline-5-ylamine, [1,10] Phenanthroline-5-ylamine]?
A: effect on PMA-induced platelet activation (platelets [1]; in words): did not inhibit; effect on PGE1-stimulated cAMP levels in platelets [2]: failed to augment

Q: What does the source list for `Cn1cc(/C=N/NC(N)=O)c2ccccc21` [2-[(1-methyl-1H-indol-3-yl)methylene]-hydrazinecarboxamide]?
A: effect on ADP-induced activation (platelets [1]; ADP-induced, in words): little effect; effect on PMA-induced platelet activation (platelets [1]; in words): little effect; effect on PGE1-stimulated cAMP levels in platelets [2]: augmented cAMP levels

Q: What does the source list for `CCCCCn1c2c(c(=N)c3ccccc31)CCC2` [JF081204{5C}]?
A: IC50s for U46619-, A23187-, and PMA-induced P-selectin expression less potent than SFLLR (platelets [1]; U46619, A23187, PMA vs SFLLR): at least 150 fold; inhibition of U46619- and collagen-induced platelet aggregation (platelets [3]): not effective; SFLLRN activation-dependent [3H]-palmitate incorporation into platelet proteins [4]: inhibited; median of maximum platelet accumulation compared to absence of compound ([5]; 3 mg/kg (P<0.002) and 6 mg/kg (P<0.02), in words): statistically significant decrease; median stabilized platelet accumulation ([5]; 3 mg/kg (P<0.01) and 6 mg/kg (P<0.001), in words): dose-dependent inhibition; delay in onset of platelet accumulation (time to 50% maximum platelet accumulation) ([5]; 1, 3 and 6 mg/kg, in words): statistically significant delay

Q: For “9-methylene-4-(alkyl)-2,3,4,9-tetrahydro-1H-cyclopenta(b)quinoline”, which “activation of mouse platelets by several platelet agonists” value (mouse platelets) is on record?
A: Its value is “inhibits activation of mouse platelets”.

Q: And the “thrombosis following laser-induced injury (reduction)” value ([5]; bolus 6 mg/kg/5 min then continuous infusion 3 mg/kg/90 min, 36 thrombi in 5 mice)?
A: Its value is “greater than 80%”.

Q: For `CC1CC(=O)NN=C1c1ccc(Cl)cc1` (stereo not drawn) [Structure 9, 6-(4-chlorophenyl)-5-methyl-4,5-dihydro-5 methyl-3(2H)-pyridazinone], which “effect on PMA-induced platelet activation” value (platelets [1]; in words) is on record?
A: Its value is “did not inhibit”.

Q: Which “increase of the distance of pain free walking” value [6] does the source give for `O=C1CCc2cc(OCCCCc3nnnn3C3CCCCC3)ccc2N1` [cilostazol] here?
A: Its value is “up to 59%”.
